Measured values published in ChEMBL document CHEMBL4387706, “Discovery of Novel Spiroindoline Derivatives as Selective Tankyrase Inhibitors” (J Med Chem, 2019).
≈ marks a conversion by molar mass, not a printed value.

Key:
physchem = details: phosphate buffer, pH 7.4
Tankyrase 1/2 = target: T1, Tankyrase 1/2 (Homo sapiens, UniProt Q9H2K2+O95271)
T1 sequence (Q9H2K2 whole entry): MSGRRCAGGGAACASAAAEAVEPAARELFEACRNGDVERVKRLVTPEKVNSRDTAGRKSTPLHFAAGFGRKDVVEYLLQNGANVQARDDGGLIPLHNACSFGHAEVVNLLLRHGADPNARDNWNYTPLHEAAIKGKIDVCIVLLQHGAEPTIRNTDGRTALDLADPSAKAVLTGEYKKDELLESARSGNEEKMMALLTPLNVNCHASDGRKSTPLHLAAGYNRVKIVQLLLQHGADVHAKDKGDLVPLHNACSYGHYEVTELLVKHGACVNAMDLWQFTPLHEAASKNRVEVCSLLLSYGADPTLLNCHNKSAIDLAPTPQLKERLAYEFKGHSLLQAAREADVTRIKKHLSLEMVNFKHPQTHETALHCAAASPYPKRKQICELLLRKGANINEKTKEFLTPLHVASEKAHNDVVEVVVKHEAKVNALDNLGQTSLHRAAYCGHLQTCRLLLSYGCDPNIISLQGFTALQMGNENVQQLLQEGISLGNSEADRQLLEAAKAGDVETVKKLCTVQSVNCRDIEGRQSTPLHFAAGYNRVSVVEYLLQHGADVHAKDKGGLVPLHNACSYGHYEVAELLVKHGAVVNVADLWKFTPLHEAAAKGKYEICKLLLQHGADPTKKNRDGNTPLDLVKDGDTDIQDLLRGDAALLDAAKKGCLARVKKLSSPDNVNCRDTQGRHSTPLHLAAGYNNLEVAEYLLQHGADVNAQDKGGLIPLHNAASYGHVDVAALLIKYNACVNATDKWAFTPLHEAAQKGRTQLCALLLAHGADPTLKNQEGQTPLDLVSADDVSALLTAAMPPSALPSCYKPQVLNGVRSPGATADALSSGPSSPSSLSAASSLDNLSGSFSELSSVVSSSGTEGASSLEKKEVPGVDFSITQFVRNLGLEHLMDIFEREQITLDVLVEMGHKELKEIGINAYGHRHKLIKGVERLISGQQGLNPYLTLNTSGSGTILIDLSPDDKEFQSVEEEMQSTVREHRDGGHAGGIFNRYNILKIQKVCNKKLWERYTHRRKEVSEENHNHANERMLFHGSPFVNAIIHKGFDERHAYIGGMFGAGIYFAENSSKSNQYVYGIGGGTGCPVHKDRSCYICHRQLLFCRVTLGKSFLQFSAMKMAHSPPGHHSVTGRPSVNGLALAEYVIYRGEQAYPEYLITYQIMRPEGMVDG
T1 sequence (O95271 whole entry): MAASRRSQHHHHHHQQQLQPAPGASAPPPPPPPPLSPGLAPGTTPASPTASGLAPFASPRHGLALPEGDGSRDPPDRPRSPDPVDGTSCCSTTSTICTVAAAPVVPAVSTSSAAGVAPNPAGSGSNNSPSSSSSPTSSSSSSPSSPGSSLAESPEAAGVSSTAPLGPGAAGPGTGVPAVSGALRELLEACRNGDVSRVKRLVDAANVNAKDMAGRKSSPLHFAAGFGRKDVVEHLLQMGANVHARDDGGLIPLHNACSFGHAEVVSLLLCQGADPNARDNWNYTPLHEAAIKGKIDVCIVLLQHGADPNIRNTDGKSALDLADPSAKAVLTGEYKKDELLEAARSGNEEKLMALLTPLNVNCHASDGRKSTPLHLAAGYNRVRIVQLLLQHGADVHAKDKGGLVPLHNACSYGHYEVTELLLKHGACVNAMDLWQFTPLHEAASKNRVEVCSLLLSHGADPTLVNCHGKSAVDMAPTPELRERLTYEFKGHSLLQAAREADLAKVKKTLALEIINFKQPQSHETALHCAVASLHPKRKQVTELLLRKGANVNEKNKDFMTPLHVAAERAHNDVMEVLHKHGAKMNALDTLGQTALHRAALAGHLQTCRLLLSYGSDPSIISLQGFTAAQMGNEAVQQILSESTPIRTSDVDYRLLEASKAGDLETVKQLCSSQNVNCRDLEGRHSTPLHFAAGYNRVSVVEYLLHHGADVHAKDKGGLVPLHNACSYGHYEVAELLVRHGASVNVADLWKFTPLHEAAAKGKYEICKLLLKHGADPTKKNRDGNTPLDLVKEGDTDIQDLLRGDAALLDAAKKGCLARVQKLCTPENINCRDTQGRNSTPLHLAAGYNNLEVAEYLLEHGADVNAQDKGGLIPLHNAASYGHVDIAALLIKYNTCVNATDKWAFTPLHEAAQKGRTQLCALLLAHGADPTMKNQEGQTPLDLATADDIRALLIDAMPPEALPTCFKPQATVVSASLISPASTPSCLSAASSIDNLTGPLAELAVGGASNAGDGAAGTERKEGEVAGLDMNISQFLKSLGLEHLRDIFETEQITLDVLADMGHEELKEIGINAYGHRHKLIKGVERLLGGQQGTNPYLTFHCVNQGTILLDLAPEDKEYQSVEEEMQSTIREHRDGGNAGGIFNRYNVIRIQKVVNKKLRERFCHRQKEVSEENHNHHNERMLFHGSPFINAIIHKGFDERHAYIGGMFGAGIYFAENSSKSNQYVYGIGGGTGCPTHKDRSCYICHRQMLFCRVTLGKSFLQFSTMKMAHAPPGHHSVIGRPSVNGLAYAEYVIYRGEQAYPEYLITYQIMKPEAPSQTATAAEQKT
Description: Inhibition of TNKS/TNKS2 (unknown origin) expressed in human DLD1 cells assessed as reduction in Wnt-signaling measured after 24 hrs by TCF-luciferase reporter gene assay

[1] = target: Poly [ADP-ribose] polymerase 1 (Homo sapiens, UniProt P09874)
Sequence of Poly [ADP-ribose] polymerase 1 (P09874 whole entry): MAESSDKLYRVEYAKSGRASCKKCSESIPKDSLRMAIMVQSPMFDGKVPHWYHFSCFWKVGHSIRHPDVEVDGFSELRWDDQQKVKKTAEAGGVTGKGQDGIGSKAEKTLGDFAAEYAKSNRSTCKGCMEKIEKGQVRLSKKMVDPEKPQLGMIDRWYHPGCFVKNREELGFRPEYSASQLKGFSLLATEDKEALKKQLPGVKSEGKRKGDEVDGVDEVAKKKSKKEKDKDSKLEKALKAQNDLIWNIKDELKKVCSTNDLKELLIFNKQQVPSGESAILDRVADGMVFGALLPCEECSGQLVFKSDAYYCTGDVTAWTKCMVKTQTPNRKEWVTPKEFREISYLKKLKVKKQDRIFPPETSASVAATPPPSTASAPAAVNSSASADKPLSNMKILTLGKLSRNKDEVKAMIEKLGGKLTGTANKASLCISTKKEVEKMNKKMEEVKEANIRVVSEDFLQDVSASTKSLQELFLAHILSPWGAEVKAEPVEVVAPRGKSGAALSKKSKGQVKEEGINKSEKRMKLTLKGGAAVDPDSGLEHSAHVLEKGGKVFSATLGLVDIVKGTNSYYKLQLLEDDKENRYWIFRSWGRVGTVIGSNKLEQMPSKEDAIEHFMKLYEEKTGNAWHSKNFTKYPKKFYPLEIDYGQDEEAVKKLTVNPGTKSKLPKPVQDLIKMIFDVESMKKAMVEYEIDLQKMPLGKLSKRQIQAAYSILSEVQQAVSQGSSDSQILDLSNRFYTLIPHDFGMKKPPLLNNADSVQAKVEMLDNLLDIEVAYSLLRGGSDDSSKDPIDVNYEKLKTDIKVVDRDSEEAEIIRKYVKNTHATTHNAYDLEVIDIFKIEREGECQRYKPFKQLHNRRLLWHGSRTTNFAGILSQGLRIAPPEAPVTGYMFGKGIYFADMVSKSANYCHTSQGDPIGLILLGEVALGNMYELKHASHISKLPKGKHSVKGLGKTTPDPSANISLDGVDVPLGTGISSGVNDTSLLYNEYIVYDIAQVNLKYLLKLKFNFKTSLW
Description: Inhibition of recombinant human PARP1 expressed in Escherichia coli assessed as reduction in auto-PARylation using histone as substrate measured after 45 mins in presence of biotinylated-NAD+ by ELISA

[2] = target: T2, Poly [ADP-ribose] polymerase tankyrase-1 (Homo sapiens, UniProt O95271)
T2 sequence (O95271 whole entry): T1 sequence (O95271 whole entry)
Description: Inhibition of recombinant human N-terminal TEV cleavage site-fused/FLAG-poly his-tagged TNKS SAM-PARP domain (1024 to 1327 residues) expressed in Escherichia coli assessed as reduction in auto-PARylation preincubated for 10 mins followed by biotinylated-NAD+ addition and measured after 45 mins by ELISA

RKO = assay: Antiproliferative activity against human RKO cells assessed inhibition of cell growth measured after 5 days by MTT assay; format: functional; details: 120 h
COLO 320DM [3] = assay: Antiproliferative activity against human COLO320DM cells assessed inhibition of cell growth measured after 5 days by MTT assay; format: functional; details: 120 h
[4] = target: Tankyrase 1/2 (Homo sapiens) (UniProt Q9H2K2+O95271); assay: Inhibition of TNKS/TNKS2 in human COLO320DM cells assessed as upregulation of AXIN2 expression at 0.1 uM measured after 16 hrs by Western blot analysis relative to G007-LK; format: cell-based
COLO 320DM [5] = assay: cells; details: Homo sapiens, 96 h
Description: Antiproliferative activity against human COLO320DM cells assessed as inhibition of cell growth measured after 4 days by CellTiter-Glo assay

[6] = target: T3, Poly [ADP-ribose] polymerase tankyrase-2 (Homo sapiens, UniProt Q9H2K2)
T3 sequence (Q9H2K2 whole entry): T1 sequence (Q9H2K2 whole entry)
Description: Inhibition of recombinant human N-terminal TEV cleavage site-fused/FLAG-poly his-tagged TNKS2 SAM-PARP domain (613 to 1166 residues) expressed in Escherichia coli assessed as reduction in auto-PARylation preincubated for 10 mins followed by biotinylated-NAD+ addition and measured after 45 mins by ELISA

[7] = Permeability of the compound by PAMPA; format: ADME; details: read-out: permeability
in vitro [8] = details: human, liver microsomes
Description: Stability in human liver microsomes assessed as parent compound remaining at 1 uM measured after 30 mins in presence of NADPH by LC-MS/MS analysis

in vitro [9] = details: mouse, liver microsomes
Description: Stability in mouse liver microsomes assessed as parent compound remaining at 1 uM measured after 30 mins in presence of NADPH by LC-MS/MS analysis

solubility at 1 h, 200 µM (physchem) [µg/mL]	IC50 (Tankyrase 1/2) [nM]	IC50 [1] [µM]	IC50 [2] [nM]	GI50 (COLO 320DM [3]) [nM]	fold change (FC) [4]	GI50 (COLO 320DM [5]) [µM]	IC50 [6] [nM]	Papp [7] [×10⁻⁶ cm/s]	remaining at 0.5 h, 1 µM (in vitro [8]) [%]	remaining at 0.5 h, 1 µM (in vitro [9]) [%]	SMILES	GI50 (RKO) [nM]
5.2 (≈ 11.6 µM)	119	> 20	18.2	4650	4.03	2.9	16.4				O=c1[nH]c(N2CCC3(CC2)CN(CCO)c2cc(Cl)cc(Cl)c23)nc2c1CCCC2	40
74.6 (≈ 187 µM)	83.9	> 20	9.2	260	3.63	1.4	11.8	7.6			O=c1[nH]c(N2CCC3(CC2)CN(CCO)c2cccc(F)c23)nc2c1CCCC2	90
55.9 (≈ 121 µM)	19.8	> 20	9	450	8.03	2.6	9.5	43			O=C1N(CCO)c2cc(Cl)cc(Cl)c2C12CCN(c1nc3c(c(=O)[nH]1)CCCC3)CC2	2610
78.7 (≈ 200 µM)	918	> 20	19	2670	0.98	12.7	26	2.9			O=C1N(CCO)c2ccccc2C12CCN(c1nc3c(c(=O)[nH]1)CCCC3)CC2	3400
> 76.1	362	> 20	49.3	1770	0.98	3.9	26.9	17.4			O=c1[nH]c(N2CCC3(CC2)CN(CCO)c2ccccc23)nc2c1CCCC2	220
1.6 (≈ 4.76 µM)	352	> 20	28.5			13.1	20.7		77.9	34.7	O=c1[nH]c(N2CCC3(CC2)CNc2ccccc23)nc2c1CCCC2	
1.07 (≈ 3.17 µM)	342	> 20	31.5			5.8	35.7		76.3	0	O=c1[nH]c(N2CCC3(CC2)OCc2ccccc23)nc2c1CCCC2	
0.67 (≈ 1.99 µM)	608	> 20	43.4			10.8	14.6		64.3	0.1	O=c1[nH]c(N2CCC3(CC2)COc2ccccc23)nc2c1CCCC2	
80.1 (≈ 194 µM)	36.5	> 20	6.8	190	4.1	1.8	8.2	3.6			O=C1N(CCO)c2cccc(F)c2C12CCN(c1nc3c(c(=O)[nH]1)CCCC3)CC2	2030
1.17 (≈ 3.33 µM)	> 10000	> 20	30.2			> 50	18.3		28.1	0.1	O=C1Oc2ccccc2C12CCN(c1nc3c(c(=O)[nH]1)CCCC3)CC2	
64.2 (≈ 183 µM)	591	> 20	27.6			11.2	25.1		84.3	0	O=C1Nc2ccccc2C12CCN(c1nc3c(c(=O)[nH]1)CCCC3)CC2	

More lines, now with the values behind:

SMILES	solubility at 1 h, 200 µM (physchem) [µg/mL]	IC50 (Tankyrase 1/2) [nM]	IC50 [1] [µM]	IC50 [2] [nM]	GI50 (COLO 320DM [3]) [nM]	fold change (FC) [4]	GI50 (COLO 320DM [5]) [µM]	IC50 [6] [nM]	Papp [7] [×10⁻⁶ cm/s]	remaining at 0.5 h, 1 µM (in vitro [8]) [%]	remaining at 0.5 h, 1 µM (in vitro [9]) [%]	GI50 (RKO) [nM]
COc1ccccc1C1=CCN(c2nc3c(c(=O)[nH]2)CCCC3)CC1	14.2 (≈ 42.1 µM)	1161	> 20	35			6.3	49.7		99.3	91.7	
COc1ccccc1C1CCN(c2nc3c(c(=O)[nH]2)CCCC3)CC1	1 (≈ 2.95 µM)	531	> 20	65.4			4.6	67.6		62.1	0	
COc1ccc(N2CCN(c3nc4c(c(=O)[nH]3)CC(F)(F)CC4)CC2)cc1	1.1 (≈ 2.92 µM)	1971	> 20	79.6			> 20	36.4				
COc1ccccc1N1CCN(c2nc3c(c(=O)[nH]2)C[S+]([O-])CC3)CC1 (stereo unspecified)	8.8 (≈ 23.5 µM)	> 10000	> 20	6170			> 20	5340				
COc1ccc(N2CCN(c3nc4c(c(=O)[nH]3)COCC4)CC2)cc1	6 (≈ 17.5 µM)	2246	> 20	220			> 20	148				
COc1ccccc1N1CCN(c2nc3c(c(=O)[nH]2)COCC3)CC1	12.3 (≈ 35.9 µM)	1009	> 20	67.6			17.1	112				
COc1ccccc1N1CCN(c2nc3c(c(=O)[nH]2)CC(F)(F)CC3)CC1	0.8 (≈ 2.13 µM)	403	> 20	19.4			15.5	65.5				
COc1ccccc1N1CCN(c2nc3c(c(=O)[nH]2)CSCC3)CC1	0.5 (≈ 1.39 µM)	23.2	> 20	2.5			3.8	2.3				
